# What was measured:
# [1] = tested on: Mgp^−/− mouse model of AVM; test: Brain appearance and immunostaining of brain sections; type: in vivo; settings: Mgp^−/− mice, IN 2-weeks
# Experimental: Immunostaining was performed as previously described^15. ([…], Golden […], et al. Glioma-associated endothelial cells are chemoresistant to temozolomide. J Neurooncol. 2009; 95(1):13-22). Primary antibodies used were rabbit anti-MMP2, mouse anti-MMP9 (1:150, Abgent), rabbit anti-phospho-Smad1/5 ([…]/465) (1:50, Abgent), rabbit anti-BMP4, rabbit anti-PAI-1 (1:50, Proteintech), rabbit anti-VEGF (1:50, Santa Cruz Biotechnology), rabbit anti-HIF-1α (1:50, Cell Signaling Technology), and rabbit anti-phospho-Smad3 ([…]/425) (1:50, GeneTex). Secondary antibodies used were biotinylated anti-rabbit and biotinylated anti-mouse (1:300, Vector Laboratories), accordingly. Pictures were taken in an Eclipse 80i microscope (Nikon). Images shown are representative of three-five independent experiments. In vivo efficacy studies were performed using 3-week-old Mgp^+/- C57BL/6 mice^16,17 (Yao Y, Jumabay M, Wang A, Boström K I. Matrix Gla protein deficiency causes arteriovenous malformations in mice. J Clin Invest. 2011; 121(8):2993-3004) (Yao Y, Yao […], et al. Reducing Jagged 1 and 2 levels prevents cerebral arteriovenous malformations in matrix Gla protein deficiency. Proc Nat Acad Sci USA. 2013; 110(47):19071-19076). provided by Dr. Yucheng Yao (UCLA, Los Angeles) and mated to obtain the appropriate genotypes. Only about 10-15% of each litter were born with the Mgp^-/- genotype, and among those, only about 45% survived until the end of the treatment and/or the imaging of the brain vasculature, due to the extreme severity of the disease in this mouse model. These animals not only suffer AVMs in the brain, but all major organs are also affected and dysfunctional. Thus, […] might die due to several causes, including stroke, severe lung inflammation that causes respiratory failure-especially when anesthesia is used-, organ failure due to liver and/or spleen malfunction, heart failure, etc., drastically limiting the number of the Mgp^-/- mice available for the CTA studies. […] Treatment with 0.08 nmol/mouse of miR-18a or scramble microRNA was administered IN daily for 2-weeks. 2.5 μL/nostril were delivered in RNase-free water. Ultra-high-resolution in vivo computed tomography angiography (CTA) was performed in mice for 3D imaging of whole brain vascular architecture^18, ([…], Rendon D, et al. Ultra-High-Resolution In vivo Computed Tomography Imaging of Mouse Cerebrovasculature Using a Long Circulating Blood Pool Contrast Agent. Scientific reports. 2015; 5:10178) as described in Data. The vascular data was quantified using ImageJ. Regions of interest encompassing the Circle of Willis (CoW) and the azygous of the anterior cerebral artery (AzACA) and its branches were selected in CT images using thick slab maximum intensity projection (MIP) or 3D volume rendering. The images were converted to 8-bit grayscale and thresholded to highlight the vasculature containing pixels. The pixels were analyzed as particles and normalized to results from the wildtype mice (WT, Mgp^+/+). Immediately after imaging, mice were euthanized, and brains were frozen in Clear Frozen Section Compound (VWR) and stored at -80° C. Blood was collected for complete blood count (Antech). The lungs, livers, spleens, femurs, and kidneys were harvested and fixed in 10% formalin. Photographs of the stained sections were captured using an Eclipse 80i microscope (Nikon).
# AVM-BEC = test: Invasion assay, Matrigel-coated Boyden chamber, AVM-BEC; type: cell-based, human; settings: overnight, P=0.0012
# Source text: The chemoinvasion assay was described^14. (Marín-Ramos N I, Thein T Z, Cho H-Y, et al. NEO212 inhibits migration and invasion of glioma stem cells. Mol Cancer Ther. 2018; 17(3):625-637). Pictures were captured using an Eclipse 80i microscope (Nikon), and cells counted with ImageJ Software (NIH).
substance,measurement,setting,value
hsa-miR-18a-5p (UAGGUGCAUCUAGUGCAGAUAG; chemistry not given here; listed as Homo sapiens) [small non-coding RNA molecule involved in post-transcriptional regulation of gene expression; Dharmacon],activation (phosphorylation) of Smad1/5 in brain sections (IHC),[1],decreased
same,expression of BMP4 in brain sections (IHC),[1],decreased
same,expression of HIF-1α in brain sections (IHC),[1],decreased
same,expression of PAI-1 in brain sections (IHC),[1],decreased
same,expression of VEGF in brain sections (IHC),[1],decreased
same,signs of fresh hemorrhage and presence of abnormally enlarged blood vessels in the brain,[1],reduced
same,invasiveness,AVM-BEC,decreased

# — patent US20230212571A1, “COMPOSITIONS AND METHODS FOR DELIVERING POLYNUCLEOTIDES” (NeOnc Technologies, Inc., priority 2020, published 2023)
